Data taken from ChEMBL document CHEMBL1152062, “Novel 4,5,6,7-tetrahydrobenzothiazole dopamine agonists display very low stereoselectivity in their interaction with dopamine receptors” (Bioorg Med Chem Lett, 1991).

Legend:
Rattus norvegicus [1] = experiment: Dose required to inhibit the synthesis of DOPA in rat brain was determined intraperitoneally; assay type: functional; conditions: ip
Rattus norvegicus [2] = experiment: Percent inhibition of spontaneous DA neuronal firing in the substantia nigra of anesthetized rats was determined.; assay type: functional
D(1A) dopamine receptor = D(1A) dopamine receptor (Rattus norvegicus, UniProt P18901); experiment: Affinity of the Compound for Dopamine D1 receptor in rat striatal membrane was determined in vitro using Dopamine Antagonist [3H]SCH-23390 as ligand.; assay type: cell membranes, Striatum
D(2) dopamine receptor [3] = target: T1, D(2) dopamine receptor (Rattus norvegicus, UniProt P61169); experiment: Affinity of the Compound for Dopamine receptor D2 in rat striatal membrane was determined in vitro using Dopamine Antagonist [3H]spiperone as ligand; Value ranges from (580-1050); assay type: cell membranes, Striatum
D(2) dopamine receptor [4] = target: T1, D(2) dopamine receptor; experiment: Affinity of the Compound for Dopamine receptor D2 in rat striatal membrane was determined in vitro using Dopamine agonist [3H]N-propylnorapomorphine as ligand; Value ranges from (204-360); assay type: cell membranes, Striatum
D(2) dopamine receptor [5] = target: T1, D(2) dopamine receptor; experiment: Affinity of the Compound for Dopamine receptor D2 in rat striatal membrane was determined in vitro using Dopamine Antagonist [3H]spiperone as ligand; Value ranges from (270-500); assay type: cell membranes, Striatum
D(2) dopamine receptor [6] = target: T1, D(2) dopamine receptor; experiment: Affinity of the Compound for Dopamine receptor D2 in rat striatal membrane was determined in vitro using Dopamine agonist [3H]N-propylnorapomorphine as ligand; Value ranges from (70-150); assay type: cell membranes, Striatum
D(2) dopamine receptor [7] = target: T1, D(2) dopamine receptor; experiment: Affinity of the Compound for Dopamine receptor D2 in rat striatal membrane was determined in vitro using Dopamine Antagonist [3H]spiperone as ligand; Value ranges from (124-550); assay type: cell membranes, Striatum
D(2) dopamine receptor [8] = target: T1, D(2) dopamine receptor; experiment: Affinity of the Compound for Dopamine receptor D2 in rat striatal membrane was determined in vitro using Dopamine agonist [3H]N-propylnorapomorphine as ligand; Value ranges from (80-119); assay type: cell membranes, Striatum
Rattus norvegicus [9] = experiment: Percent reversal of the increase in rat striatum DOPA accumulation produced by pretreatment with GBL (750 mg/kg ip) and NSD 1015 (100 mg/kg) when 2 mg/kg was administered.; assay type: functional

T1 sequence (P61169 whole entry): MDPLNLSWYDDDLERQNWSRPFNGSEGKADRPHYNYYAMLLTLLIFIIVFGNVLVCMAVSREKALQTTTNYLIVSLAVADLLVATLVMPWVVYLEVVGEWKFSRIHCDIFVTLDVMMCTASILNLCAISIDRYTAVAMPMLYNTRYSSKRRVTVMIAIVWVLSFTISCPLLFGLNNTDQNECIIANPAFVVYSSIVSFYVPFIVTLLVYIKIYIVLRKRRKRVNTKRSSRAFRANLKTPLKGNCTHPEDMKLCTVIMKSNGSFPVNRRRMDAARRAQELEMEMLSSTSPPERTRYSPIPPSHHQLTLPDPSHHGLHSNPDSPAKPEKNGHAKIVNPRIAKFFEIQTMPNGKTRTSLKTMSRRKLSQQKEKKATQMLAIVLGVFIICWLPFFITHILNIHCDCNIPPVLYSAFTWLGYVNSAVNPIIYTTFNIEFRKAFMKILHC
Chain of D(1A) dopamine receptor (P18901 whole entry): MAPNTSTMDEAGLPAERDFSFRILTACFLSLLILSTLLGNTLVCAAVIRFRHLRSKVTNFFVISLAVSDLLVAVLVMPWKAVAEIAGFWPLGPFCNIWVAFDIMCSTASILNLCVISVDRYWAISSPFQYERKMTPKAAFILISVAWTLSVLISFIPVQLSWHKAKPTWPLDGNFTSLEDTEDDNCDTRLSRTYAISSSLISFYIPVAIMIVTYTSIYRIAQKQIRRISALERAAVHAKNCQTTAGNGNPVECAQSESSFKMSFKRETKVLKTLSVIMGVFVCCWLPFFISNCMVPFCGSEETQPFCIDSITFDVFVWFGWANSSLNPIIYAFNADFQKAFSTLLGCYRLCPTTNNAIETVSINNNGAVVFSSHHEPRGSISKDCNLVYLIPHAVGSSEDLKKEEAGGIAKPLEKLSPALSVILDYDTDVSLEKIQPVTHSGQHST

| Structure (SMILES) | ED50 (Rattus norvegicus [1]) [mg/kg] | Inhibition (Rattus norvegicus [2]) [%] | IC50 (D(1A) dopamine receptor) [µM] | IC50 (D(2) dopamine receptor [3]) [µM] | IC50 (D(2) dopamine receptor [4]) [µM] | IC50 (D(2) dopamine receptor [5]) [µM] | IC50 (D(2) dopamine receptor [6]) [µM] | IC50 (D(2) dopamine receptor [7]) [µM] | IC50 (D(2) dopamine receptor [8]) [µM] | Reversal (Rattus norvegicus [9]) [%] |
| --- | --- | --- | --- | --- | --- | --- | --- | --- | --- | --- |
| Nc1nc2c(s1)C[C@@H](N1CCN(c3ccccn3)CC1)CC2 | 4.8 | 100 | > 15 | 0.8 | 0.28 |  |  |  |  |  |
| Nc1nc2c(s1)C[C@H](N1CCN(c3ccccn3)CC1)CC2 | 7 | 85 | > 15 |  |  | 0.44 | 0.105 |  |  |  |
| Nc1nc2c(s1)CC(N1CCN(c3ccccn3)CC1)CC2 (racemic) | 4.4 | 97 | > 15 |  |  |  |  | 0.32 | 0.1 |  |
| CN1CCc2cccc3c2[C@H]1Cc1ccc(O)c(O)c1-3 [APOMORPHINE] |  | 100 |  |  |  |  |  |  |  | 100 |
